Data from patent US20180327354A1, “Unnatural Analogues of Calcitriol and Uses Thereof” (Vidasym, Inc., priority 2009, published 2018).
“Also recorded” adds a separate entry of the source. Where two headings read alike, the source gives them in different places.

Tests used:
CYP24A1 [1] = assay: CYP24A1 expression induction in HL-60 promyelocytic leukemia cells (real-time RT-PCR); assay type: cell-based; conditions: Homo sapiens, HL-60 cells
Method: (§1) Some compounds were tested in HL-60 promyelocytic leukemia cells and a primary culture of human coronary artery smooth muscle cells (HCASMC) for CYP24A1 induction. It is well documented that CYP24A1 has a VDRE in its promoter region and is a specific target gene of VDR (Meyer et al., 2007, J Biol Chem 282: 22344-22352). […] Compounds also were tested in HCASMC for their effects in inducing VDR. To assess the suitability of a compound for modulating immune responses, compounds were tested in HL-60 for their effects in inducing CD14 expression. To assess the suitability of a compound for treating thrombosis, compounds also were tested in HCASMC for their effects in modulating thrombomodulin and thrombospondin-1.
(§2) Compounds are tested in human HL-60 promyelocytic leukemia cells to assess their potency in inducing the expression of CYP24A1 and CD14. HL-60 cells are cultured in IMDM supplemented with 20% heat-inactivated fetal bovine serum at 37° C. in a humidified 5% CO2-95% air atmosphere. Cells are plated into 6 well plates and treated with test agent for 24 h. Cells are lysed with the addition of 1 mL of Trizol and RNA prepared according to the manufacturer's protocol.
(§3) Real-time reverse transcription-PCR is performed with the forward and reverse PCR primers and 250 nM of the TAQMAN™ probe specifically designed for CYP24A1 or CD14. (A TAQMAN™ probe is comprised of a fluorophore covalently attached to the 5′-end of the oligonucleotide probe and a quencher at the 3′-end.) After the data acquisition, the CYP24A1 or CD14 mRNA expression level is normalized to the GAPDH mRNA level. FIGS. 2A and 2B show the results from a typical CYP24A1 (FIG. 2A) and CD14 (FIG. 2B) expression study.

CD14 = CD14 expression induction in HL-60 promyelocytic leukemia cells (real-time RT-PCR); assay type: cell-based; conditions: Homo sapiens, HL-60 cells
Method: as §1, §2, §3

normal mice = assay: Hypercalcemic side effect profile and serum PTH in normal mice; assay type: in vivo, Male C57/BL mice; conditions: for dose at which compound starts to raise serum Ca: i.p. dosing once daily for 3 consecutive days
Method: The normal mice model is a convenient and quick way to assess the hypercalcemic side effect profile of compounds. At the same time, data on serum PTH can be collected.
Male C57/BL mice at 18-20 g are dosed with the test agent at 100 al/mouse (concentrations as indicated) i.p. once daily for 3 consecutive days or at 10 ml/kg, p.o. gavage, once daily for 5 days. The animals were harvested 24 h after the last dose by anesthetization with ketamine/xylazine. Blood was collected from the aorta. Serum total calcium was measured using the QuantiChrom Calcium Assay kit and/or the Roche Hitachi 912 Chemistry Analyzer. Serum PTH was measured using a PTH Immunoassay. Vehicle control was 100 l/mouse of 5% EtOH/95% propylene glycol for i.p. dosing or 10 ml/kg of 20% Hydroxypropyl-β-Cyclodextrin for p.o. gavage dosing.
For serum chemistry data, group mean±SEM are presented. Differences between vehicle and compound-treated groups are assessed using a one-way ANOVA followed by a Dunnett's post-hoc test. FIGS. 3A and 3B show the results from a typical p.o. gavage dosing study (n=4-9 per group).

[2] = test system: 5/6 nephrectomized uremic rats; assay: Endothelial function (aortic ring relaxation) in 5/6 nephrectomized uremic rats; assay type: in vivo, Sprague Dawley rats; conditions: 5/6 NX rats; for acetylcholine-induced endothelial-dependent aortic relaxation / sodium nitroprusside (SNP)-induced endothelial-independent relaxation: 2-week treatment, aortic rings precontracted with PE
Method: The experimental conditions using the 5/6 (subtotal) nephrectomized rats were as described above. Twenty-four hours after the last dose, the animals were sacrificed, and the aorta tissues were harvested for the determination of endothelial function.
Rats were anesthetized with pentobarbital sodium (i.p., 35 mg/kg). Thoracic aortas were excised in a cold modified Krebs solution (see below) and a 3 mm aortic ring was suspended in 10 mL tissue baths under 0.5 grams of resting tension in a modified Krebs solution containing (g/L): NaCl 6.9169, KCl 0.3499, NaHCO3 2.0998, MgSO4 0.2901, KH2 PO4 0.1604, CaCl2 0.2663, glucose 1.9994, EDTA 0.026, equilibrated with 5% CO2-95% 02 (pH 7.4 at 37° C.). Aortas were sensitized by the addition of phenylephrine (PE, 3 μM) with 10 min washouts between intervals. Aortas were precontracted with PE (3 μM), and the endothelium-dependent vasodilator acetylcholine (ACh) was added in half-log increments (10^−9 mol/L-10^−4.5 mol/L) at 3-5 min intervals, allowing time for the effect of ACh to plateau. After a 60 min washout, aortas were precontracted with PE (3 μM) and subsequently treated with endothelial-independent vasodilator sodium nitroprusside (SNP; 10^−9 mol/L-10^−6 mol/L) at 3-5 min intervals, allowing time for the effect to plateau. Data were recorded with the BL-420F Data Acquisition & Analysis System.
ACh and SNP-induced relaxation were calculated as the % relaxation of the PE-induced precontraction. Differences in vascular function were determined using a two-way ANOVA, followed by a Bonferonni post-hoc test. […] SNP serves as a source of nitric oxide and induces relaxation via an endothelial-independent pathway.

CYP24A1 [3] = assay: CYP24A1 expression induction in primary culture of human coronary artery smooth muscle cells; assay type: cell-based; conditions: HCASMC
Method: Compounds were tested in a primary culture of HCASMC to assess their potency in inducing the expression of CYP24A1 and VDR.
Primary culture of HCASMC was grown in smooth muscle growth medium SmGM-2 containing 5.5 mM glucose, 5% FBS, 50 μg/ml gentamicin, 50 ng/ml amphotericin-B, 5 μg/ml insulin, 2 ng/ml hFGF, and 0.5 ng/ml hEGF at 37° C. in a humidified 5% CO2-95% air. Cells were grown to >80% confluence and used within five passages.
Cells were plated into 6 well plates and treated with test agent for 24 h. Cells were lysed with the addition of 1 mL of Trizol and RNA prepared according to the manufacturer's protocol.
Real-time reverse transcription-PCR was performed with the forward and reverse PCR primers and […] of the TAQMAN™ probe specifically designed for CYP24A1 or VDR. (A TAQMAN™ probe is comprised of a fluorophore covalently attached to the 5′-end of the oligonucleotide probe and a quencher at the 3′-end.) After the data acquisition, the CYP24A1 or VDR mRNA expression level was normalized to the GAPDH mRNA level. […] Group mean±STDEV (standard deviation) are presented.

[4] = 24 h, mRNA normalized to GAPDH, Table 3 summary, some values average of 3 or more determinations, read-out: CYP24A1 EC50
[5] = 24 h, mRNA normalized to GAPDH, Table 3 summary, some values average of 3 or more determinations, read-out: CD14 EC50
[6] = 24 h, Table 4 summary, some values average of 2 or more determinations, read-out: EC50 for CYP24A1 induction

Row | EC50 (CYP24A1 [3]; [6]) | Structure (SMILES) | EC50 (CYP24A1 [1]; [4]) | EC50 (CYP24A1 [1]; typical study, FIG. 2A, read-out: EC50 for inducing CYP24A1 expression) | EC50 (CD14; [5]) | EC50 (CD14; typical study, FIG. 2B, read-out: EC50 for inducing CD14 expression) | dose at which compound starts to raise serum Ca (normal mice) | dose at which compound starts to raise serum calcium (normal mice; p.o. gavage once daily for 5 days, FIG. 3A) | dose at which compound starts to suppress PTH (normal mice; p.o. gavage once daily for 5 days, FIG. 3B) | acetylcholine-induced endothelial-dependent aortic relaxation [2] | sodium nitroprusside (SNP)-induced endothelial-independent relaxation [2] | EC50 (CYP24A1 [3]; typical study, FIG. 5A, read-out: EC50 for inducing CYP24A1 expression) | acetylcholine-induced endothelial-dependent relaxation ([2]; treatment with 0.16 and 0.64 μg/kg)
1 | 0.39 nM | CCC(O)(CC)CCO[C@H](C)C1CCC2/C(=C/C=C3C[C@@H](O)C4(CC4)[C@H](O)C3)CCCC21C (stereo partly drawn) [Vida-10, (4R,8R)-6-((E)-2-((1S,7αS)-1-((R)-1-(3-ethyl-3-hydroxypentyloxy)ethyl)-7α-methyldihydro-1H-inden-4(2H,5H,6H,7H,7αH)-ylidene)ethylidene)spiro[2.5]octane-4,8-diol] | 6.8 nM |  | 0.4 nM |  | 1 µg/kg |  |  | improves endothelial function; also recorded: dose-dependent improvement; also recorded: potent in improving endothelial function | no significant effect |  | back to the Sham level
2 | 0.39 nM | C=C1[C@H](O)CC(=C/C=C2\CCCC3(C)C2CCC3[C@@H](C)OCCC(O)(CC)CC)C[C@H]1O (stereo partly drawn) [Vida-11, (1R,3R)-5-((E)-2-((1S,3αS,7αS)-1-((R)-1-(3-ethyl-3-hydroxypentyloxy)ethyl)-7α-methyldihydro-1H-inden-4(2H, 5H, 6H, 7H, 7αH)-ylidene)ethylidene)-2-methylenecyclohexane-1,3-diol] | 0.8 nM |  | 0.9 nM |  | 0.1 µg/kg |  |  | improves; also recorded: dose-dependent improvement; also recorded: potent in improving endothelial function | no significant effect |  | 

Row | Structure (SMILES) | EC50 (CYP24A1 [3]; [6]) | EC50 (CYP24A1 [1]; [4]) | EC50 (CYP24A1 [1]; typical study, FIG. 2A, read-out: EC50 for inducing CYP24A1 expression) | EC50 (CD14; [5]) | EC50 (CD14; typical study, FIG. 2B, read-out: EC50 for inducing CD14 expression) | dose at which compound starts to raise serum Ca (normal mice) | dose at which compound starts to raise serum calcium (normal mice; p.o. gavage once daily for 5 days, FIG. 3A) | dose at which compound starts to suppress PTH (normal mice; p.o. gavage once daily for 5 days, FIG. 3B) | acetylcholine-induced endothelial-dependent aortic relaxation [2] | sodium nitroprusside (SNP)-induced endothelial-independent relaxation [2] | EC50 (CYP24A1 [3]; typical study, FIG. 5A, read-out: EC50 for inducing CYP24A1 expression) | acetylcholine-induced endothelial-dependent relaxation ([2]; treatment with 0.16 and 0.64 μg/kg)
3 | C=C1[C@H](O)CC(=C/C=C2\CCCC3(C)C2CCC3[C@@H](C)OC[C@H](C)C(C)(C)O)C[C@H]1O (stereo partly drawn) [Vida-5, (1R,3R)-5-((E)-2-((3αS,7αS)-1-((R)-1-((S)-3-hydroxy-2,3-dimethylbutoxy)ethyl)-7α-methyldihydro-1H-inden-4(2H,5H,6H, 7H, 7αH)-ylidene)ethylidene)-2-methylenecyclohexane-1,3-diol] | 2 nM | 7.3 nM | 5.6 nM | 3.7 nM | 4.1 nM | 1 µg/kg | 5 µg/kg | 0.05 µg/kg | improves; also recorded: dose-dependent improvement; also recorded: potent in improving endothelial function | no significant effect | 2.9 nM | 
